Data from patent publication US12331061B2, “Compounds having BET, estrogen receptor, and androgen receptor degradation activity and uses thereof” (ACCUTAR BIOTECHNOLOGY INC., priority 2019, dated 2025).

Legend:
Assay in all cases: Degradation of BET proteins in MCF7 cells, Western blot with densitometry
Type in all cases: cell-based
BRD2 = biological target: T1, BRD2 (Homo sapiens, UniProt P25440); settings: for degradative activity towards BRD2 over a 24 hour time course: 24 hour time course experiment, shown only in FIG. 1c; for degradative activity towards BRD2: MCF7 cell line, 6 hours after administration, shown only in FIG. 1a, 1b, 2
T1 construct: MCF7 cells were plated in 24-well plates; endogenous in cells; host or cells: MCF7
Description: (§1) MCF7 cells were plated in 24-well plates at 1.5×10^5 cells/well in DMEM growth medium containing 10% FBS and 1% Penicillin Streptomycin, and incubated overnight at 37° C. The following day, test compound was administered to the cells using 1000× compound stock solution prepared in DMSO at various concentrations. […] Cells were then washed with PBS and protein was collected in Laemmli sample buffer (1×; VWR International). Protein was isolated from cell lysate (approximately 25 μg) by SDS-PAGE and transferred to nitrocellulose membranes. Non-specific binding was blocked by incubating with blocking buffer (5% milk in Tris-buffered saline with 0.1% Tween 20 (“TBS-T”)) at room temperature for 60 minutes. The membrane was then incubated with primary antibodies (rabbit anti-BRD2 (1:1000, Cell Signaling), mouse anti-GAPDH (1:5,000, Santa Cruz), mouse anti-BRD3 (1:500, Abcam) and rabbit anti-BRD4 (1:500, Abcam)) overnight at 4° C., followed by washing (3 times) with TBS-T, and incubation with horseradish peroxidase-conjugated […] IgG (1:5,000, Jackson Immunoresearch) or goat anti-mouse IgG (1:5,000, Jackson Immunoresearch) for 60 minutes. After washing with TBS-T, blots were developed using an enhanced chemiluminescence kit (ThermoFisher Scientific) and the bands were imaged and quantified by densitometry (Bio-Rad).

BRD3 = biological target: T2, BRD3 (Homo sapiens, UniProt Q15059); settings: for degradative activity towards BRD3 over a 24 hour time course: 24 hour time course experiment, shown only in FIG. 1c; for degradative activity towards BRD3: MCF7 cell line, 6 hours after administration, shown only in FIG. 1a, 1b, 2
T2 construct: endogenous in cells; host or cells: MCF7
Description: as §1

BRD4 = BRD4 (Homo sapiens, UniProt O60885); set-up: endogenous in cells; host or cells: MCF7; settings: 24 hour time course experiment; shown only in FIG. 1c
Description: as §1

T2 sequence (Q15059 whole entry): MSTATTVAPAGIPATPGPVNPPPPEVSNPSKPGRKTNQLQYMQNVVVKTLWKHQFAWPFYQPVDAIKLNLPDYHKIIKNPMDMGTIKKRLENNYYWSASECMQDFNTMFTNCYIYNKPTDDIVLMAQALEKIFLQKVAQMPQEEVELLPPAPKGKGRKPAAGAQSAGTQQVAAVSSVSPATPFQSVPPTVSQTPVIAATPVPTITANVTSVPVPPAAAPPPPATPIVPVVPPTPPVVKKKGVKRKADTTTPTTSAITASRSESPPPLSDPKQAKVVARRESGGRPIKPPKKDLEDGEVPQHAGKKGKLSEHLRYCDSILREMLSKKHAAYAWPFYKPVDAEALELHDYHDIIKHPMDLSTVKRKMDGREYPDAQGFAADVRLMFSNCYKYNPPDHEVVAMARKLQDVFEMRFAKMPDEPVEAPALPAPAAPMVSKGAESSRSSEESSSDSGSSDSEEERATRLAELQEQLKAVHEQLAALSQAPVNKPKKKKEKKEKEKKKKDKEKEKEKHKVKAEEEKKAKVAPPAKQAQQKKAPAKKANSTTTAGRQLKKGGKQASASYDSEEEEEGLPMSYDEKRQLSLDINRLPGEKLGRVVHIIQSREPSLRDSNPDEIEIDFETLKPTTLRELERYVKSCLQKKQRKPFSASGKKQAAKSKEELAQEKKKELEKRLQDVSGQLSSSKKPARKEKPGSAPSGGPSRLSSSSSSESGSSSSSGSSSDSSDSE
T1 sequence (P25440 whole entry): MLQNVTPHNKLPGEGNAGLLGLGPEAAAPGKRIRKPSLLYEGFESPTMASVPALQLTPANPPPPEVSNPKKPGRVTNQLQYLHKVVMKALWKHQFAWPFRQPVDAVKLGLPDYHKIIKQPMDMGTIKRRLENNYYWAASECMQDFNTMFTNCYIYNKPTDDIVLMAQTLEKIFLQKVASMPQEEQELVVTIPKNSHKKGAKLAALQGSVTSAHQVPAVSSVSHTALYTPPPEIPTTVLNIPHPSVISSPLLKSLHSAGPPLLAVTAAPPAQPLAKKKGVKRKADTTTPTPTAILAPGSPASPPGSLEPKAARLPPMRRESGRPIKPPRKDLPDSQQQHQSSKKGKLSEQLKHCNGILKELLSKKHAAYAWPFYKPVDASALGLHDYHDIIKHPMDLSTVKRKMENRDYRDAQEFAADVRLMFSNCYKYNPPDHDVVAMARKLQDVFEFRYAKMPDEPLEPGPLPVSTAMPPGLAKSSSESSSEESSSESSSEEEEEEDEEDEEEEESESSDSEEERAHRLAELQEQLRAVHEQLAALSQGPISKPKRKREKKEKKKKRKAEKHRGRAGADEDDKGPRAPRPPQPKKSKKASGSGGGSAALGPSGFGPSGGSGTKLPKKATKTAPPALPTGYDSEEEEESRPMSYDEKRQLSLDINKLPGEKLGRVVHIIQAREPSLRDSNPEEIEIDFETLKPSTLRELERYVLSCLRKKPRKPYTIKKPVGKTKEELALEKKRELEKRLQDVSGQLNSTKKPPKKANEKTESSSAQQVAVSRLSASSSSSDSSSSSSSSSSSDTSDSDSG

Cc1sc2c(c1C)C(c1ccc(Cl)cc1)=N[C@@H](CC(=O)NCCCCCCCCCCC(=O)Nc1ccc(CC(=O)NC3CCC(=O)NC3=O)cc1)c1nnc(C)n1-2 (stereo partly drawn) [Compound 253034, 11-(2-((S)-4-(4-chlorophenyl)-2,3,9-trimethyl-6H-thieno[3,2-f][1,2,4]triazolo[4,3-a][1,4]diazepin-6-yl)acetamido)-N-(4-(2-((2,6-dioxopiperidin-3-yl)amino)-2-oxoethyl)phenyl)undecanamide]
degradative activity: degradative activity towards BRD2 over a 24 hour time course (BRD2) | degradative activity towards BRD2 (BRD2) | degradative activity towards BRD3 over a 24 hour time course (BRD3) | degradative activity towards BRD3 (BRD3) | degradative activity towards BRD4 over a 24 hour time course (BRD4)

Cc1sc2c(c1C)C(c1ccc(Cl)cc1)=N[C@@H](CC(=O)NCCCCCCCCCCC(=O)Nc1cccc(CC(=O)NC3CCC(=O)NC3=O)c1)c1nnc(C)n1-2 (stereo partly drawn) [Compound 253035, 11-(2-((S)-4-(4-chlorophenyl)-2,3,9-trimethyl-6H-thieno[3,2-f][1,2,4]triazolo[4,3-a][1,4]diazepin-6-yl)acetamido)-N-(3-(2-((2,6-dioxopiperidin-3-yl)amino)-2-oxoethyl)phenyl)undecanamide]
degradative activity: degradative activity towards BRD2 over a 24 hour time course (BRD2) | degradative activity towards BRD2 (BRD2) | degradative activity towards BRD3 over a 24 hour time course (BRD3) | degradative activity towards BRD3 (BRD3) | degradative activity towards BRD4 over a 24 hour time course (BRD4)
